From article PMC8388771, “Cationic Peptidomimetic Amphiphiles Having a N-Aryl- or N-Naphthyl-1,2,3-Triazole Core Structure Targeting Clostridioides (Clostridium) difficile: Synthesis, Antibacterial Evaluation, and an In Vivo C. difficile Infection Model” (Antibiotics, 2021)
Values after ≈ are worked out from the molar mass of the structure shown. Read-outs that look alike come from different tables or passages of the source.

Experiments:
C. difficile ATCC 700057 = test: Primary MIC assay, C. difficile ATCC 700057; assay type: cell-based, Clostridioides difficile; settings: Clostridioides difficile, ATCC700057; Table 1; read-out: MIC C. difficile ATCC 700057
Protocol: (§1) The N-arytriazole and N-naphthyltriazole peptidomimetics were subjected to antimicrobial screening. […] Vancomycin, colistin, fluconazole, and tamoxifen were used as positive controls (see Table 1 for details).
(§2) Primary screening (Gram-positive bacteria). Primary MIC assays were performed as described by the Clinical and Laboratory Standards Institute for aerobic and anaerobic bacteria. MIC values for vancomycin were within acceptable QC ranges.

C. difficile 132 (RT027) = test: Primary MIC assay, C. difficile 132 (RT027); assay type: cell-based, Clostridioides difficile; settings: Clostridioides difficile; Table 1; read-out: MIC C. difficile 132 (RT027)
Protocol: as §1, §2

S. aureus ATCC 29213 = test: Primary MIC assay, S. aureus ATCC 29213; assay type: cell-based; settings: Staphylococcus aureus, ATCC29213; Table 1; read-out: MIC S. aureus ATCC 29213
Protocol: as §1, §2

S. aureus NCTC 10442 = test: Primary MIC assay, S. aureus NCTC 10442 (MRSA); assay type: cell-based; settings: Staphylococcus aureus, MRSA
Protocol: as §1, §2

E. faecalis ATCC 29212 = test: Primary MIC assay, E. faecalis ATCC 29212; assay type: cell-based, Enterococcus faecalis; settings: Enterococcus faecalis, ATCC29212; Table 1; read-out: MIC E. faecalis ATCC 29212
Protocol: as §1, §2

S. pneumoniae ATCC 49619 = test: Primary MIC assay, S. pneumoniae ATCC 49619; assay type: cell-based, Streptococcus pneumoniae; settings: Streptococcus pneumoniae, ATCC49619; Table 1; read-out: MIC S. pneumoniae ATCC 49619
Protocol: as §1, §2

E. coli ATCC 25922 [1] = test: Primary MIC assay, E. coli ATCC 25922; assay type: cell-based; settings: Escherichia coli, ATCC25922; Table 1; read-out: MIC E. coli ATCC 25922
[2] = Cytotoxicity (CC50) assay by CO-ADD; assay type: cell-based, human; settings: human, HEK293 cells (ATCC CRL-1573); Table 1; cytotoxicity on HEK293 cells, tested at ≤32 µg/mL
Description: as §1
(§3) Secondary screening (MRSA and Gram-negative bacteria) and cytotoxicity assay–performed by the Community for Open Antimicrobial Drug Discovery (CO-ADD). Samples were provided to CO-ADD [29] for antimicrobial screening by whole cell growth inhibition assays.
Cytotoxicity Assay. These were performed as described previously.

human erythrocytes = test: Hemolysis assay, HC50 determination; assay type: cell-based
Protocol: Hemolysis assay (human erythrocytes)–HC50 determination. These were performed as described previously.

S. aureus ATCC 43300 = test: CO-ADD MIC assay, S. aureus ATCC 43300 (MRSA); assay type: cell-based; settings: Staphylococcus aureus, MRSA, read-out: MIC S. aureus ATCC 43300
Description: as §1, §3
(§4) Bacterial Inhibition–MIC Assay. These were performed as described previously.

P. aeruginosa ATCC 27853 = test: CO-ADD MIC assay, P. aeruginosa ATCC 27853; assay type: cell-based; settings: Pseudomonas aeruginosa, ATCC27853, Table S1
Description: as §1, §3, §4

[3] = test system: K. pneumoniae ATCC 700603; test: CO-ADD MIC assay, K. pneumoniae ATCC 700603; assay type: cell-based; settings: Klebsiella pneumoniae, ATCC700603, Table S1, multi-drug resistant
Description: as §1, §3, §4

A. baumannii ATCC 19606 = test: CO-ADD MIC assay, A. baumannii ATCC 19606; assay type: cell-based; settings: Acinetobacter baumannii, ATCC19606, Table S1
Description: as §1, §3, §4

E. coli ATCC 25922 [4] = test: CO-ADD MIC assay, E. coli ATCC 25922; assay type: cell-based; settings: Escherichia coli, ATCC25922, Table S1
Description: as §1, §3, §4

C. albicans ATCC 90028 = test: CO-ADD MIC assay, C. albicans ATCC 90028; assay type: cell-based; settings: Candida albicans, ATCC90028, Table S1
Description: as §1, §3

[5] = test system: Cryptococcus neoformans var. grubii ATCC 208821; test: CO-ADD MIC assay, C. neoformans var. grubii ATCC 208821; assay type: cell-based; settings: for MIC: Cryptococcus neoformans, ATCC208821, Table S1; for MIC C. neoformans var. grubii ATCC 208821: Table S1
Description: as §1, §3

[6] = Table 1, read-out: MIC S. aureus NCTC 10442
[7] = Table 1, lysis of human erythrocytes
[8] = Table S1, footnote says lysis of sheep erythrocytes

Row | SMILES | MIC (C. difficile ATCC 700057) [µg/mL] | MIC (C. difficile 132 (RT027)) [µg/mL] | MIC (S. aureus ATCC 29213) [µg/mL] | MIC (S. aureus NCTC 10442; [6]) [µg/mL] | MIC (E. faecalis ATCC 29212) [µg/mL] | MIC (S. pneumoniae ATCC 49619) [µg/mL] | MIC (E. coli ATCC 25922 [1]) [µg/mL] | CC50 [2] [µg/mL] | HC50 (human erythrocytes; [7]) [µg/mL] | HC50 (human erythrocytes; [8]) [µg/mL] | MIC (S. aureus ATCC 43300; Table S1, CO-ADD) [µg/mL] | MIC (P. aeruginosa ATCC 27853) [µg/mL] | MIC [3] [µg/mL] | MIC (A. baumannii ATCC 19606) [µg/mL] | MIC (E. coli ATCC 25922 [4]) [µg/mL] | MIC (C. albicans ATCC 90028) [µg/mL] | MIC [5] [µg/mL] | MIC C. neoformans var. grubii ATCC 208821 [5] [µg/mL] | further results
1 | CC(C)CCc1cn(-c2c(OCC(=O)N[C@H](CCCNC(=N)N)Cn3cc(Cc4ccccc4)nn3)ccc3ccccc23)nn1.Cl [Compound 23] | 32 | 32 | 4 | 4 | 4 | 4 | 64 | > 32 | >32 | > 32 | 8 | > 32 | > 32 | > 32 | 32 | 32 | 16 |  | 
2 | CC(C)CCc1cnnn1-c1c(OCC(=O)N[C@H](CCCNC(=N)N)Cn2cc(C3CCCCC3)nn2)ccc2ccccc12 [Compound 24] | 32 (≈ 52 µM) | 32 (≈ 52 µM) | 8 (≈ 13 µM) | 8 (≈ 13 µM) | 8 (≈ 13 µM) | 8 (≈ 13 µM) | 32 (≈ 52 µM) | 21.9 (≈ 35.6 µM) | >32 | > 32 | 8 (≈ 13 µM) | 32 (≈ 52 µM) | > 32 | 32 (≈ 52 µM) | 32 (≈ 52 µM) | 32 (≈ 52 µM) | > 32 |  | 
3 | CC(C)CCc1cnnn1-c1c(OCC(=O)N[C@H](CCCNC(=N)N)Cn2cc(CC3CCCCC3)nn2)ccc2ccccc12.Cl [Compound 25] | 32 | 64 | 4 | 4 | 8 | 8 | 16 | > 32 | 10.6 | 10.6 | 4 | > 32 | > 32 | 32 | 32 | 16 | 4 to 8 | 8 | 
4 | CC(C)CCc1cnnn1-c1c(OCC(=O)N[C@H](CCCNC(=N)N)Cn2cc(Cc3ccccc3)nn2)ccc2ccccc12.Cl [Compound 26] | 64 | > 128 | 8 | 8 | 16 | 4 | 64 | 23.5 | >32 | > 32 | 16 | > 32 | > 32 | > 32 | > 32 | 32 | > 32 |  | 
5 | CC(C)CCc1cn(-c2ccccc2OCC(=O)N[C@H](CCCCN)C(=O)N[C@H](CCCNC(=N)N)Cn2cc(Cc3ccccc3)nn2)nn1 [Compound 36] | 128 (≈ 183 µM) | 128 (≈ 183 µM) | 32 (≈ 45.7 µM) | 32 (≈ 45.7 µM) | 64 (≈ 91.3 µM) | 16 (≈ 22.8 µM) | 128 (≈ 183 µM) | > 32 | >32 | > 32 | 16 (≈ 22.8 µM) | > 32 | > 32 | > 32 | > 32 | 16 (≈ 22.8 µM) | 32 (≈ 45.7 µM) |  | 
6 | CC(C)CCc1cnnn1-c1ccccc1OCC(=O)N[C@H](CCCCN)C(=O)N[C@H](CCCNC(=N)N)Cn1cc(C2CCCCC2)nn1 [Compound 37] | 64 (≈ 92.4 µM) | 64 (≈ 92.4 µM) | 16 (≈ 23.1 µM) | 32 (≈ 46.2 µM) | 16 (≈ 23.1 µM) | 8 (≈ 11.5 µM) | 64 (≈ 92.4 µM) | > 32 | >32 | > 32 | 16 (≈ 23.1 µM) | > 32 | > 32 | > 32 | > 32 | 16 (≈ 23.1 µM) | 16 (≈ 23.1 µM) |  | 
7 | CC(C)CCc1cnnn1-c1ccccc1OCC(=O)N[C@H](CCCCN)C(=O)N[C@H](CCCNC(=N)N)Cn1cc(CC2CCCCC2)nn1 [Compound 38] | 128 (≈ 181 µM) | > 128 | 128 (≈ 181 µM) | 128 (≈ 181 µM) | > 128 | 128 (≈ 181 µM) | > 128 | 32 (≈ 45.3 µM) | 32 | 32 | 32 (≈ 45.3 µM) | > 32 | > 32 | > 32 | > 32 | > 32 | 16 (≈ 22.6 µM) |  | 
8 | CC(C)CCc1cnnn1-c1ccccc1OCC(=O)N[C@H](CCCCN)C(=O)N[C@H](CCCNC(=N)N)Cn1cc(Cc2ccccc2)nn1.Cl.Cl [Compound 39] | 64 | 32 | 32 | 64 | 32 | 16 | 128 | > 32 | >32 | > 32 | 32 | > 32 | > 32 | > 32 | > 32 | 16 | 16 |  | 
9 | CC(C)CCc1cn(-c2c(OCC(=O)N[C@H](CCCCN)C(=O)N[C@H](CCCNC(=N)N)Cn3cc(CC4CCCCC4)nn3)ccc3ccccc23)nn1 [Compound 41] | 16 (≈ 21.1 µM) | 16 (≈ 21.1 µM) | 8 (≈ 10.6 µM) | 8 (≈ 10.6 µM) | 8 (≈ 10.6 µM) | 16 (≈ 21.1 µM) | 128 (≈ 169 µM) | 16 (≈ 21.1 µM) | 32 | 32 | 4 (≈ 5.28 µM) | 16 (≈ 21.1 µM) | 32 (≈ 42.3 µM) | 32 (≈ 42.3 µM) | 32 (≈ 42.3 µM) | 32 (≈ 42.3 µM) | 4 to 8 (≈ 5.28 to 10.6 µM) | 4 (≈ 5.28 µM) | MIC (S. aureus NCTC 10442; MRSA / NCTC 10442 / NCTC 104422, Table 2, read-out: MIC S. aureus NCTC 104422): 8 µg/mL (≈ 10.6 µM); HC50 (human erythrocytes; Table 2, footnote says lysis of sheep erythrocytes): 32 µg/mL; MIC (S. aureus ATCC 43300; Table 2): 4 µg/mL (≈ 5.28 µM)
10 | CC(C)CCc1cnnn1-c1c(OCC(=O)N[C@H](CCCCN)C(=O)N[C@H](CCCNC(=N)N)Cn2cc(C3CCCCC3)nn2)ccc2ccccc12.Cl.Cl [Compound 43] | 128 | 128 | 16 | 16 | 64 | 4 | 64 | > 32 | >32 | > 32 | 8 | 32 | > 32 | 32 | 32 | > 32 | 4 to 8 | 8 | 
11 | CC(C)CCc1cnnn1-c1c(OCC(=O)N[C@H](CCCCN)C(=O)N[C@H](CCCNC(=N)N)Cn2cc(CC3CCCCC3)nn2)ccc2ccccc12 [Compound 44] | 32 (≈ 42.3 µM) | 32 (≈ 42.3 µM) | 8 (≈ 10.6 µM) | 4 (≈ 5.28 µM) | 16 (≈ 21.1 µM) | 4 (≈ 5.28 µM) | 64 (≈ 84.5 µM) | > 32 | >32 | > 32 | 8 (≈ 10.6 µM) | 32 (≈ 42.3 µM) | > 32 | 32 (≈ 42.3 µM) | 32 (≈ 42.3 µM) | 32 (≈ 42.3 µM) | 4 to 8 (≈ 5.28 to 10.6 µM) | 8 (≈ 10.6 µM) | 
12 | CC(C)CCOc1ccccc1-n1nncc1COCC(=O)N[C@H](CCCCN)C(=O)N[C@H](CCCNC(=N)N)Cn1cc(C2CCCCC2)nn1 [Compound 48] | > 32 | > 32 | > 32 | > 32 | > 32 | > 32 | > 32 | > 32 | 24.5 | 24.5 | > 32 | > 32 | > 32 | > 32 | > 32 | > 32 | > 32 |  | 
